# Results from PubChem BioAssay (NCI).
#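 Tested at 5 concentrations; 48 h exposure; 96-well plates; endpoints linearly interpolated, else capped at highest concentration. GI50 is the concentration that inhibits growth by half. TGI: concentration producing complete growth inhibition.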
# Legend:
# Assay in all cases: growth of human tumour cells (NCI), 48 h
# CAKI-1 renal = test system: CAKI-1 renal
# EKVX NSCLC = test system: EKVX NSCLC
# MOLT-4 leukemia = test system: MOLT-4 leukemia
# NCI-H226 lung = test system: NCI-H226 lung
# PC-3 prostate = test system: PC-3 prostate
# SF-268 CNS = test system: SF-268 CNS
# SF-295 CNS = test system: SF-295 CNS
# SF-539 CNS = test system: SF-539 CNS
# U251 CNS = test system: U251 CNS
# UO-31 renal = test system: UO-31 renal
Structure (SMILES),TGI (CAKI-1 renal) [µM],TGI (EKVX NSCLC) [µM],TGI (MOLT-4 leukemia) [µM],TGI (NCI-H226 lung) [µM],TGI (PC-3 prostate) [µM],TGI (SF-268 CNS) [µM],TGI (SF-295 CNS) [µM],TGI (SF-539 CNS) [µM],TGI (U251 CNS) [µM],TGI (UO-31 renal) [µM],GI50 (CAKI-1 renal) [µM],GI50 (EKVX NSCLC) [µM],GI50 (MOLT-4 leukemia) [µM],GI50 (NCI-H226 lung) [µM],GI50 (PC-3 prostate) [µM],GI50 (SF-268 CNS) [µM],GI50 (SF-295 CNS) [µM],GI50 (SF-539 CNS) [µM],GI50 (U251 CNS) [µM],GI50 (UO-31 renal) [µM]
C(=Nc1cnc2ccccc2c1)c1ccc2ccccc2n1,> 100,> 100,> 100,> 100,> 100,> 100,> 100,> 100,> 100,> 100,,,,,,,,,,
Cc1nc(-c2cnc(NC(C)C)n(C)c2=O)ccc1Oc1ccnc(-c2cnn(C)c2)c1,65.2,99.7,35.2,99.1,> 100,> 100,90.3,46.8,> 100,> 100,7.51,10.4,5.16,14.9,16.5,23,9.14,7.5,15.6,15.7
CN(C)C=NC1CCC(C(C)(C)C)CC1 (stereo unspecified),33.1,59.8,32.2,41.3,30.3,96,31.2,31.8,31.2,30.8,,,,,,,,,,
O=c1ccc(=O)n(-c2ccccc2)[nH]1,> 100,> 100,> 100,> 100,> 100,> 100,> 100,> 100,> 100,> 100,,,,,,,,,,
COc1ccc2nc(-c3ccccc3)cc(Nc3cccc(C(C)=O)c3)c2c1,28.2,34.3,> 100,34.3,50.6,8.61,31.6,3.66,16.8,> 100,12.6,13.6,7.57,16.1,21.5,2.22,12.7,1.67,1.96,22.8
O=C(COc1ccc(OCC(=O)N2C(=O)CN(c3ccccc3)C2=S)cc1)N1C(=O)CN(c2ccccc2)C1=S,> 100,> 100,> 100,> 100,> 100,> 100,> 100,> 100,> 100,> 100,> 25,> 25,> 100,,,,> 25,,> 25,> 25
CN(C)Cc1ccc(C(C)(C)C)cc1-c1cc(C(C)(C)C)ccc1CN(C)C,> 100,> 100,> 100,> 100,> 100,> 100,> 100,> 100,> 100,> 100,,,,,,,,,,
CCOC(=O)c1c(NC(=O)c2ccccc2)sc2c3c(ccc12)OCN(C)C3,2.99,3.08,5.19,4.14,3,3.59,3.23,3.05,3.4,2.74,1.59,1.65,2.09,1.9,1.53,1.77,1.74,1.63,1.68,1.36
COc1cc(/C=C/C(=O)/C=C/c2cc3ccc(Cl)cc3n(Cc3ccccc3)c2=O)ccc1O,4.54,4.67,> 100,4.66,5.6,7.47,10.8,3.53,2.55,2.64,2.08,2.11,1.89,2.02,1.92,2.16,3,1.62,1.17,1.34
O=C1c2ccccc2C(=O)c2c1ccc1c(=O)n(-c3ccccc3C(F)(F)F)nnc21,> 100,6.43,8.12,5.87,> 100,> 100,7.02,8.49,17.9,> 100,2.77,2.36,1.53,2.38,2.2,2.74,2.59,2.57,2.66,1.68
CCN(CC)CCC(CNc1ccnc2cc(Cl)ccc12)c1ccccc1 (stereo unspecified),18.5,> 100,58.2,41.1,69.9,41,4.79,4.11,14,14.3,3.52,28.5,4.66,11.3,13.9,7.85,1.83,1.81,3.93,2.72
NC(Cc1c[nH]c2ccc(F)cc12)C(=O)O (stereo unspecified),> 2500,> 2500,> 2500,> 2500,> 2500,> 2500,1500,1590,> 2500,1950,1270,1000,1030,626,780,677,609,506,728,444
